# Laboratory results: paper PMC6211260 (Journal of Enzyme Inhibition and Medicinal Chemistry, 2018)
# “And” between values parts separate entries of the source, which are not always exact repeats. Equal entries are not always repeated.
# Legend:
# Plasma stability = type: in vitro ADME; settings: 37 °C, 10 µM
# Procedure: About 10 µM of compound 2l was mixed with human plasma and rat plasma and the mixture was shaked at 37 °C for 30 min and 120 min. After each time interval, acetonitrile was added and the mixture was centrifugated (14000 rpm, 4 °C). The supernatant was injected into the LC-MS to detect the remaining amount of compound 2l.
# [1] = tested on: OVCAR-4 ovarian cancer cell line; assay: NCI five-dose testing; type: cell-based; settings: OVCAR-4
# Procedure: (§1) Screening against the cancer cell lines was carried out at the National Cancer Institute (NCI, Bethesda, Maryland, USA) applying the standard protocol of the NCI[22].
# [2] = tested on: PC-3 prostate cancer cell line; assay: NCI five-dose testing; type: cell-based; settings: PC-3
# Procedure: as §1
# [3] = tested on: K-562 leukaemia cell line; assay: NCI five-dose testing; type: cell-based; settings: K-562
# Procedure: as §1
# [4] = tested on: HOP-92 non-small cell lung cancer cell line; assay: NCI five-dose testing; type: cell-based; settings: HOP-92
# Procedure: as §1
# [5] = tested on: U251 CNS cancer cell line; assay: NCI five-dose testing; type: cell-based; settings: U251
# Procedure: as §1
# [6] = tested on: SK-MEL-5 melanoma cell line; assay: NCI five-dose testing; type: cell-based; settings: SK-MEL-5
# Procedure: as §1
# [7] = tested on: MDA-MB-468 breast cancer cell line; assay: NCI five-dose testing; type: cell-based; settings: MDA-MB-468
# Procedure: as §1
# [8] = tested on: HT-29 colon cancer cell line; assay: NCI five-dose testing; type: cell-based; settings: HT-29
# Procedure: as §1
# [9] = tested on: A498 renal cancer cell line; assay: NCI five-dose testing; type: cell-based; settings: A498
# Procedure: as §1
# RAF1 = target: T1, RAF1 (Homo sapiens, UniProt P04049); assay: In vitro kinase screening (Kinase HotSpot); type: biochemical
# T1 construct: purchased Reaction Biology Corp
# Description: (§2) To investigate the biological target of compound, Reaction Biology Corp. Kinase HotSpotSM service was used adopting standard assay protocol.
# BRAF (V600E) = target: T2, BRAF (V600E) (Homo sapiens, UniProt P15056, V600E); assay: In vitro kinase screening (Kinase HotSpot); type: biochemical
# T2 construct: purchased Reaction Biology Corp
# T2 sequence (P15056 whole entry V600E): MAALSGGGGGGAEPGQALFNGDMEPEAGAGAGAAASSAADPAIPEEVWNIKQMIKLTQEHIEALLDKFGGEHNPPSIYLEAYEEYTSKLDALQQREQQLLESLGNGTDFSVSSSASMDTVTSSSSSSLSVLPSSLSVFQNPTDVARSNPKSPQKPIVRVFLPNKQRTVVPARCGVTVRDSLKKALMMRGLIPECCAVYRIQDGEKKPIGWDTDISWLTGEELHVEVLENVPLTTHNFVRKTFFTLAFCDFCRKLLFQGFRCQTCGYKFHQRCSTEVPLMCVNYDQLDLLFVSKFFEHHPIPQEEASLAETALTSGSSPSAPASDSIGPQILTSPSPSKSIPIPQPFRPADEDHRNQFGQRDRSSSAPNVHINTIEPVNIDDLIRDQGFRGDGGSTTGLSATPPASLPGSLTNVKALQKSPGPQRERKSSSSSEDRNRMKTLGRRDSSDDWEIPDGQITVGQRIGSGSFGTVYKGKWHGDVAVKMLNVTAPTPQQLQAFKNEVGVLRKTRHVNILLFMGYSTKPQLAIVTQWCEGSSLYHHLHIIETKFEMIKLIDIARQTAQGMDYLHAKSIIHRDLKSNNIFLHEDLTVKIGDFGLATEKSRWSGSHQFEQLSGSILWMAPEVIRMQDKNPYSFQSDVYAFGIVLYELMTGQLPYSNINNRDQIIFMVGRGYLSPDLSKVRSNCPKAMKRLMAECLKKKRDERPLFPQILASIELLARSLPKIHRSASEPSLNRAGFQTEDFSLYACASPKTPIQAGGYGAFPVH
# Description: as §2
# ERK1 = target: T3, ERK1 (Homo sapiens, UniProt P27361); assay: In vitro kinase screening (Kinase HotSpot); type: biochemical; settings: single dose of 10 µM
# T3 construct: purchased Reaction Biology Corp
# T3 sequence (P27361 whole entry): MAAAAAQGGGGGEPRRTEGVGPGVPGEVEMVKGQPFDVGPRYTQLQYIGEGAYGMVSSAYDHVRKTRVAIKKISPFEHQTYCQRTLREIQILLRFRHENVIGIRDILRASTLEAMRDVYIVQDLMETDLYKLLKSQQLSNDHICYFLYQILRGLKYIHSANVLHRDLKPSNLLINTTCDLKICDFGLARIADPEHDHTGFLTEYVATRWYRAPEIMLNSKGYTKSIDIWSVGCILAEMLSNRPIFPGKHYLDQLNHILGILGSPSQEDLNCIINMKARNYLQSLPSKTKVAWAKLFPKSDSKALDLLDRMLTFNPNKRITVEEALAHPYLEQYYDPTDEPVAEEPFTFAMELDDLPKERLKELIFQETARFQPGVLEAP
# Description: as §2
# MKK6 = target: T4, MKK6 (Homo sapiens, UniProt P52564); assay: In vitro kinase screening (Kinase HotSpot); type: biochemical; settings: single dose of 10 µM
# T4 construct: purchased Reaction Biology Corp
# T4 sequence (P52564 whole entry): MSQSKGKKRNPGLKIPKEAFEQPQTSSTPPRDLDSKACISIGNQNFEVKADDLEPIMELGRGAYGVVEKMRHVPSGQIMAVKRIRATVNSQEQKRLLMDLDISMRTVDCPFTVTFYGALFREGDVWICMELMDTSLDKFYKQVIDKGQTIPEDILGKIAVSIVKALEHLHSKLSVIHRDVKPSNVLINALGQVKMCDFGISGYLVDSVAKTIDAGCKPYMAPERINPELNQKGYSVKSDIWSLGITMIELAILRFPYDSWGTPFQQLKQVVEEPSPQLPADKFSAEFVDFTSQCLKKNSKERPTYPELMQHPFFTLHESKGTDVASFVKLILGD
# Description: as §2
# BRAF = target: T5, BRAF (Homo sapiens, UniProt P15056); assay: In vitro kinase screening (Kinase HotSpot); type: biochemical
# T5 construct: purchased Reaction Biology Corp
# T5 sequence (P15056 whole entry): as the sequence (P15056 whole entry V600E) above, with E600V counted along it
# Description: as §2
# JNK1 = target: T6, JNK1 (Homo sapiens, UniProt P45983); assay: In vitro kinase screening (Kinase HotSpot); type: biochemical
# T6 construct: purchased Reaction Biology Corp
# T6 sequence (P45983 whole entry): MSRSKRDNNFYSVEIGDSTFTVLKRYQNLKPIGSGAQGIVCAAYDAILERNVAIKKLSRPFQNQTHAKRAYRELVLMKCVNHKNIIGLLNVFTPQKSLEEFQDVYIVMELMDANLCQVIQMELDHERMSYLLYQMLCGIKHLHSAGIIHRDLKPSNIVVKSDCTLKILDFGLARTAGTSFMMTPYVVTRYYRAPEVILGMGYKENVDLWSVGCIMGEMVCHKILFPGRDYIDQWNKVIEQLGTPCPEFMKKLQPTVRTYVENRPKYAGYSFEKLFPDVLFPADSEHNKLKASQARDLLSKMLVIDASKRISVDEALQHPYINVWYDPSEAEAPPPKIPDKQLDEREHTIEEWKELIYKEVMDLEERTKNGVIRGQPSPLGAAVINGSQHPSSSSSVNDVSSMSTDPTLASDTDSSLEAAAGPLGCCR
# Description: as §2
# CDK2/cyclin E = target: T7, CDK2/cyclin E (Homo sapiens, UniProt P24941); assay: In vitro kinase screening (Kinase HotSpot); type: biochemical; settings: single dose of 10 µM
# T7 construct: purchased Reaction Biology Corp
# Description: as §2
# mTOR/FRAP1 = target: T8, mTOR/FRAP1 (Homo sapiens, UniProt P42345); assay: In vitro kinase screening (Kinase HotSpot); type: biochemical; settings: single dose of 10 µM
# T8 construct: purchased Reaction Biology Corp
# Description: as §2
# GSK3b = target: T9, GSK3b (Homo sapiens, UniProt P49841); assay: In vitro kinase screening (Kinase HotSpot); type: biochemical; settings: single dose of 10 µM, 10 µM
# T9 construct: purchased Reaction Biology Corp
# T9 sequence (P49841 whole entry): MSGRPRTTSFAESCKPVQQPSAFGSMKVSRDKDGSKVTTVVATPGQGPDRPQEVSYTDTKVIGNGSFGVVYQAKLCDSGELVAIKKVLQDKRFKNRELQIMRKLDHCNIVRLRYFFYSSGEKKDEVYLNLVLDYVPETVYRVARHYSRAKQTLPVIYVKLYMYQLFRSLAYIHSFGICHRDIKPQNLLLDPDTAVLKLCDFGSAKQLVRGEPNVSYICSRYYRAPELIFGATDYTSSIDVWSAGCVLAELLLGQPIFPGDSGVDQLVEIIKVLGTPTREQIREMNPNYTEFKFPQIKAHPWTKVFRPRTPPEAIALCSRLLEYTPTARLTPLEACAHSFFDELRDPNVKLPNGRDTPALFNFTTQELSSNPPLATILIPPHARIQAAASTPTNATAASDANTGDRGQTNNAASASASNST
# Description: as §2
# ROS/ROS1 = target: T10, ROS/ROS1 (Homo sapiens, UniProt P08922); assay: In vitro kinase screening (Kinase HotSpot); type: biochemical; settings: single dose of 10 µM
# T10 construct: purchased Reaction Biology Corp
# T10 sequence (P08922 28-2347): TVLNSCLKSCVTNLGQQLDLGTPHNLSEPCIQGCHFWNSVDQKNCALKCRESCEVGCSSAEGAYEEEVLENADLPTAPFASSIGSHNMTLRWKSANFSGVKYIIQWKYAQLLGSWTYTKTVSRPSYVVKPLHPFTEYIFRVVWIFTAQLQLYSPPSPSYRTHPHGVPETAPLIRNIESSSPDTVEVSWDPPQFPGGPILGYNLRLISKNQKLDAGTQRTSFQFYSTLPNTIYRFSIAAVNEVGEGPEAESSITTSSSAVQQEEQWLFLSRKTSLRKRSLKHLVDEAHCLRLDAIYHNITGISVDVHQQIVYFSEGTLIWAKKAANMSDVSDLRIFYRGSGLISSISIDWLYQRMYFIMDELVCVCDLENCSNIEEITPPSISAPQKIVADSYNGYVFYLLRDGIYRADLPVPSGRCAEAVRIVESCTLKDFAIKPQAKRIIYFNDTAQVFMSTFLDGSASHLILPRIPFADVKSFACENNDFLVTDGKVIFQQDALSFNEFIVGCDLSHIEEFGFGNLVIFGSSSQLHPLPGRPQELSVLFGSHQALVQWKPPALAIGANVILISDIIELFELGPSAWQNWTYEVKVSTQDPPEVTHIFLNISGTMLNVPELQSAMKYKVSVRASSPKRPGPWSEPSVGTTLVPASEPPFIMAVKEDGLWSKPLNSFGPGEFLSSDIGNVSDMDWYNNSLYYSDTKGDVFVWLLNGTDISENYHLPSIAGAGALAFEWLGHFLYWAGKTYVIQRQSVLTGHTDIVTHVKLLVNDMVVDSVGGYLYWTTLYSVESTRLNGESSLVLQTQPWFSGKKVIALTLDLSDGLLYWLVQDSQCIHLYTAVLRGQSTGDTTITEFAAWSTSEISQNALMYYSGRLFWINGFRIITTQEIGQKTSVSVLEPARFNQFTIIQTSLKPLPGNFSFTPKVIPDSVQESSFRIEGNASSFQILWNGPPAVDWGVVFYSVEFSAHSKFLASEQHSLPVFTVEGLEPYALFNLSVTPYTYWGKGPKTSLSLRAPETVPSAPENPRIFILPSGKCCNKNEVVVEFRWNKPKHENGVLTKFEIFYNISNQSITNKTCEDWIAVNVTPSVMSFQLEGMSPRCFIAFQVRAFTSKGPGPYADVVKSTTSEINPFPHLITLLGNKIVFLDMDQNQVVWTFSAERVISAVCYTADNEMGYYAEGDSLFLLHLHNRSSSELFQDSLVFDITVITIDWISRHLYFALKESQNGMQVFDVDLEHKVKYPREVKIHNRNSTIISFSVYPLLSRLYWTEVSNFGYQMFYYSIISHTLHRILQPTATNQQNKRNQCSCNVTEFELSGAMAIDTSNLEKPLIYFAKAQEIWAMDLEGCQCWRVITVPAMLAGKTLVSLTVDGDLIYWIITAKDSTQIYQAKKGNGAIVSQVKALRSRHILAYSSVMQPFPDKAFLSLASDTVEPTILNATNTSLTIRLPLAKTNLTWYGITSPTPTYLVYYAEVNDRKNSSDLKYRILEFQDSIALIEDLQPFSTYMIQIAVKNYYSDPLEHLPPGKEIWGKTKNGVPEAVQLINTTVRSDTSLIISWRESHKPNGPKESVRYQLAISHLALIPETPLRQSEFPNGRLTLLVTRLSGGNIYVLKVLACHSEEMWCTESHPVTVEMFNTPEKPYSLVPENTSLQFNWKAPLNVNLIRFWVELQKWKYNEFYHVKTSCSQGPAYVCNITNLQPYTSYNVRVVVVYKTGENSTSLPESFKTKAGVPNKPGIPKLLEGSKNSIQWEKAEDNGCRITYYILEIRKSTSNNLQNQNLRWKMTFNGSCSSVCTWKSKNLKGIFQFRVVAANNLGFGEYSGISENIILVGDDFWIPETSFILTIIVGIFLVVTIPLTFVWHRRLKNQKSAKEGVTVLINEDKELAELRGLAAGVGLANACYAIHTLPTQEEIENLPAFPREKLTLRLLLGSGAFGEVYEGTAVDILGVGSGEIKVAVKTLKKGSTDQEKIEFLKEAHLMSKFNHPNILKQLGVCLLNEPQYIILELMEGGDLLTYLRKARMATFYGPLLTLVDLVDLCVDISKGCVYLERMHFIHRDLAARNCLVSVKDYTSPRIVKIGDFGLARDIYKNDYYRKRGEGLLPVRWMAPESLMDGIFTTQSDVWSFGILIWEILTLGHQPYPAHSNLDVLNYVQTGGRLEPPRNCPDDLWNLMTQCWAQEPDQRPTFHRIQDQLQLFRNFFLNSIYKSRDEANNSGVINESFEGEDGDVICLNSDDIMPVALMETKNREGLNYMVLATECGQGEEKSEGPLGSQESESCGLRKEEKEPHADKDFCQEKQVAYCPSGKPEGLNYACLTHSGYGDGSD
# Description: as §2
# melanoma cell lines = assay: NCI five-dose testing, subpanel mean; type: cell-based; settings: subpanel V: melanoma
# Procedure: as §1
# Leukaemia cell lines = assay: NCI five-dose testing, subpanel mean; type: cell-based; settings: subpanel I: Leukaemia
# Procedure: as §1
# [10] = tested on: non-small cell lung cancer cell lines; assay: NCI five-dose testing, subpanel mean; type: cell-based; settings: subpanel II: non-small cell lung cancer
# Procedure: as §1
# CNS cancer cell lines = assay: NCI five-dose testing, subpanel mean; type: cell-based; settings: subpanel IV: CNS cancer
# Procedure: as §1
# breast cancer cell lines = assay: NCI five-dose testing, subpanel mean; type: cell-based; settings: subpanel IX: breast cancer
# Procedure: as §1
# renal cancer cell lines = assay: NCI five-dose testing, subpanel mean; type: cell-based; settings: subpanel VII: renal cancer
# Procedure: as §1
# [11] = tested on: prostate cancer cell lines; assay: NCI five-dose testing, subpanel mean; type: cell-based; settings: subpanel VIII: prostate cancer
# Procedure: as §1
# colon cancer cell lines = assay: NCI five-dose testing, subpanel mean; type: cell-based; settings: subpanel III: colon cancer
# Procedure: as §1
# [12] = tested on: ovarian cancer cell lines; assay: NCI five-dose testing, subpanel mean; type: cell-based; settings: subpanel VI: ovarian cancer
# Procedure: as §1
# NCI-60 cell line panel = assay: NCI-60 single-dose (10 µM) antiproliferative screening, mean over panel; type: cell-based; settings: single-dose 10 µM
# Procedure: as §1
# (§3) The final target compounds were submitted to the National Cancer Institute (NCI), Maryland, USA[23]. Thirty-one compounds were selected to be tested over 60 cell lines at single dose 10 µM.
# [13] = tested on: SF-295 CNS cancer cell line; assay: NCI-60 single-dose screening; type: cell-based; settings: 10 µM
# Procedure: as §1, §3
# [14] = tested on: SK-MEL-28 melanoma cell line; assay: NCI-60 single-dose screening; type: cell-based; settings: 10 µM
# Procedure: as §1, §3
# [15] = tested on: LOX IMVI melanoma cell line; assay: NCI-60 single-dose screening; type: cell-based; settings: 10 µM
# Procedure: as §1, §3
# [16] = tested on: Colo 205 colon cancer cell line; assay: NCI-60 single-dose screening; type: cell-based; settings: 10 µM
# Procedure: as §1, §3
# [17] = tested on: SK-MEL-5 melanoma cell line; assay: NCI-60 single-dose screening; type: cell-based; settings: 10 µM
# Procedure: as §1, §3
# [18] = tested on: HCC-2998 colon cancer cell line; assay: NCI-60 single-dose screening; type: cell-based; settings: 10 µM
# Procedure: as §1, §3
# [19] = read-out: TGI (total growth inhibition concentration)
smiles,measurement,setting,value
"O=S(=O)(NCCCNc1cc(-c2cn(-c3ccccc3)nc2-c2cccc(O)c2)ccn1)c1ccc(Cl)cc1 [Compound 2l, 4-Chloro-N-(3-((4-(3-(3-hydroxyphenyl)-1-phenyl-1H-pyrazol-4-yl)pyridin-2-yl)amino)propyl) benzenesulfonamide]","Plasma stability, remaining unchanged","Plasma stability; Human plasma, 30 min",100%
same,"Plasma stability, remaining unchanged","Plasma stability; Human plasma, 30 min, listed as 2 l",100%
same,"Plasma stability, remaining unchanged","Plasma stability; Human plasma, 120 min",95.3%
same,"Plasma stability, remaining unchanged","Plasma stability; Human plasma, 120 min, listed as 2 l",95.3%
same,"Plasma stability, remaining unchanged","Plasma stability; Rat plasma, 30 min",100%
same,"Plasma stability, remaining unchanged","Plasma stability; Rat plasma, 120 min",100%
same,IC50,[1],1670 nM
same,LD50 (lethal dose 50),[1],>100 µM
same,IC (TGI),[1]; [19],5900 nM
same,LD50 (lethal dose 50),[2],>100 µM
same,IC50,[2]; read-out: IC50,1740 nM
same,IC (TGI),[2]; [19],6100 nM
same,IC50,[3],430 nM
same,LD50 (lethal dose 50),[3],>100 µM
same,IC (TGI),[3]; [19],2500 nM
same,IC50,[4],1520 nM
same,LD50 (lethal dose 50),[4],93.2 µM
same,IC (TGI),[4]; [19],4700 nM
same,LD50 (lethal dose 50),[5],8.8 µM
same,IC50,[5]; read-out: IC50,1350 nM
same,IC (TGI),[5]; [19],3400 nM
same,IC50,[6],1230 nM
same,LD50 (lethal dose 50),[6],5.3 µM
same,IC (TGI),[6]; [19],2500 nM
same,IC50,[7],1160 nM
same,LD50 (lethal dose 50),[7],>100 µM
same,IC (TGI),[7]; [19],4600 nM
same,LD50 (lethal dose 50),[8],4.7 µM
same,IC50,[8]; read-out: IC50,470 nM
same,IC (TGI),[8]; [19],1700 nM
same,IC50,[9],330 nM
same,LD50 (lethal dose 50),[9],6.9 µM
same,IC (TGI),[9]; [19],2200 nM
same,IC50,RAF1,3520 ± 10 nM
same,IC50,BRAF (V600E); BRAF(V600E),1160 ± 40 nM
same,Inhibition %,"BRAF (V600E); single dose of 10 µM, BRAF (V599E) in Table 6, BRAF (V600E) in text",93.67 ± 0.47%
same,Inhibition %,ERK1,13.07 ± 0.93%
same,Inhibition %,MKK6,16.65 ± 0.11%
same,IC50,BRAF,4870 ± 70 nM
same,Inhibition %,BRAF; single dose of 10 µM,72.56 ± 0.27%
same,IC50,JNK1,350 ± 40 nM
same,Inhibition %,"JNK1; single dose of 10 µM, 10 µM",99.02% and 99.05 ± 0.03%
same,Inhibition %,CDK2/cyclin E,22.92 ± 1.14%
same,Inhibition %,mTOR/FRAP1,0.72 ± 0.32%
same,Inhibition %,GSK3b,75.45 ± 0.28%
same,Inhibition %,ROS/ROS1,24.03 ± 0.51%
same,IC50,melanoma cell lines,1680 nM
same,IC50,Leukaemia cell lines,1440 nM
same,IC50,[10],2320 nM
same,IC50,CNS cancer cell lines,1650 nM
same,IC50,breast cancer cell lines,1580 nM
same,IC50,renal cancer cell lines,2060 nM
same,IC50,[11],2280 nM
same,IC50,colon cancer cell lines,1510 nM
same,IC50,[12],2090 nM
same,Mean % inhibition,NCI-60 cell line panel; 60-cancer cell line screening,97.80%
same,number of cell lines with more than 100% inhibition,NCI-60 cell line panel; NCI-60 panel,24
same,per cent inhibition,[13],155.19%
same,per cent inhibition,[14],136.19%
same,per cent inhibition,[15],129.50%
same,per cent inhibition,[16],170.28%
same,per cent inhibition,[17],156.35%
same,per cent inhibition,[18],162.39%
